Patent US11219623B2, “Inflammasome inhibition for the treatment of Parkinson's disease, Alzheimer's disease and multiple sclerosis” (University of Kentucky Research Foundation, priority 2015, dated 2022)
Converted amounts (≈) assume the structure as drawn. “Also recorded” adds a separate entry of the source.

Assays:
Solubility in water = type: physicochemical; settings: aqueous buffer; Water pH 7.2 at 37° C.
Caspase-1 [1] = assay: Alu RNA-induced Caspase-1 activation, western blot, primary human RPE cells; type: cell-based
Description: The bottom row in FIG. 5 is a vinculin loading control.

Caspase-1 [2] = assay: LPS/ATP-induced Casp-1 activation, primary human RPE cells; type: cell-based; settings: 25/100 uM
Description: The loading control in FIG. 8 is vinculin. Furthermore, as shown, LPS and ATP activate the NLRP3 inflammasome only in combination, thus treatment with one or the other alone is useful as a control for this experiment.

IL-1 beta = assay: LPS/ATP-induced IL-1 beta secretion, mouse bone marrow-derived macrophages; type: cell-based; settings: primary mouse bone marrow-derived macrophages
Description: To determine whether LPS/ATP-induced inflammasome activation can be inhibited without RT inhibition, the present inventors utilized thymidine kinase-deficient (Raji/TK^−) and -expressing (Raji/TK^+) cells (Balzarini et al., 1989).

Caspase-1 [3] = assay: Nigericin-induced Caspase-1 activation, mouse bone marrow-derived macrophages; type: cell-based; settings: 100, 250 uM
NLRP3 mRNA = assay: NLRP3 priming (mRNA) induced by Alu RNA, primary human RPE cells; type: cell-based; settings: 100 uM; 16 hours; normalized to 18S RNA
Experimental: Indeed, as provided in the bar graph of FIG. 13, Alu RNA transfection increases NLRP3 mRNA levels in primary human RPE cells at 16 hours, an event termed “priming” (Y-axis) compared to mock (transfection reagent alone).

IL-1 beta mRNA = assay: IL-1beta priming (mRNA) induced by Alu RNA, primary human RPE cells; type: cell-based; settings: 100 uM; 24 hours; normalized to 18S RNA
Experimental: FIG. 14 illustrates that Alu RNA transfection increases IL-1 beta mRNA levels in primary human RPE cells at 24 hours, an event termed “priming”, (Y-axis) compared to mock (transfection reagent alone).

primary human RPE cells [4] = assay: ATP release induced by Alu RNA, ATP-dependent luciferase assay, primary human RPE cells; type: cell-based; settings: cell culture supernatant
Description: Alu RNA (Kerur et al., 2013) and LPS/ATP (Qu et al., 2011) activate the inflammasome via the ATP receptor P2X7.
(FIG. 16) Primary human RPE cells treated with Alu RNA for the times indicated release ATP. […] ATP was detected using an ATP-dependent luciferase assay.

primary human RPE cells [5] = assay: Extracellular potassium after Alu RNA transfection, potassium-dependent pyruvate kinase assay; type: cell-based; settings: 6 hours
Experimental: For FIG. 18, potassium levels were determined in cell culture supernatants spectrophotometrically using a potassium-dependent pyruvate kinase assay.

HeLa cells = assay: Cytotoxicity of Alu RNA expression plasmid (pAluA), MTS proliferation assay; type: cell-based, human; settings: pAluA vs pUC19
Description: Meanwhile, in certain embodiments, […] protects against cytotoxicity induced by plasmid expressing Alu RNA in vitro.

Alu RNA = Alu RNA levels, Northern blotting, primary human RPE cells; type: cell-based
Description: As presented in FIG. 3, primary human RPE cells treated with antisense oligonucleotides targeting DICER1 (Dcr as) (lane 3 (third lane from left)) show increased Alu RNA levels in the nuclear compartment compared to control antisense oligonucleotides (Ctr as) (lane 1 (leftmost)), monitored by Northern blotting using an Alu-specific probe.
For example, primary human RPE cells may be transfected with Alu RNA, with or without d4T. […] U6 (bottom row) is shown as loading control for nuclear fraction in FIG. 4.
And FIG. 45 presents a Northern blot of biotin-UTP-labeled Alu RNA-transfected primary human RPE cells.

mtDNA = mtDNA levels, real-time quantitative PCR, primary mouse RPE cells; type: cell-based; settings: normalized to chromosomal DNA, n=4
Description: The present disclosure further provides the results of additional experiments in FIG. 21-FIG. 23.

wild-type mice [6] = assay: pAlu-induced RPE degeneration, mouse model of dry AMD; type: in vivo; settings: daily oral administration
Experimental: Mouse studies were conducted to study treatment with NRTIs or derivatives.

mice = assay: Graft-versus-host disease model, mice receiving allogeneic bone marrow and T cells; type: in vivo, mouse; settings: vs. 0% in saline treated controls
Description: (§1) To explore the potential therapeutic relevance of NRTIs beyond the Alu-induced model of geographic atrophy (GA), it was hypothesized that if NRTIs function as generic inflammasome inhibitors, then they might be broadly useful in other animal models of disease that are also driven by P2X7.

[7] = NLRP3- and P2X7-driven model of sterile liver inflammation; settings: in vivo
Description: as §1

wild-type mice [8] = assay: Alu RNA-induced RPE degeneration, mouse model of dry AMD; settings: co-delivered to the vitreous humor; one week after delivery
IRAK4 = assay: Alu RNA-induced IRAK4 phosphorylation, primary human RPE cells
human P2X7 receptor = target: T1, human P2X7 receptor (Homo sapiens, UniProt Q99572); settings: 64 μM drug; bzATP 100 μM; n=12
T1 sequence (Q99572 1-595): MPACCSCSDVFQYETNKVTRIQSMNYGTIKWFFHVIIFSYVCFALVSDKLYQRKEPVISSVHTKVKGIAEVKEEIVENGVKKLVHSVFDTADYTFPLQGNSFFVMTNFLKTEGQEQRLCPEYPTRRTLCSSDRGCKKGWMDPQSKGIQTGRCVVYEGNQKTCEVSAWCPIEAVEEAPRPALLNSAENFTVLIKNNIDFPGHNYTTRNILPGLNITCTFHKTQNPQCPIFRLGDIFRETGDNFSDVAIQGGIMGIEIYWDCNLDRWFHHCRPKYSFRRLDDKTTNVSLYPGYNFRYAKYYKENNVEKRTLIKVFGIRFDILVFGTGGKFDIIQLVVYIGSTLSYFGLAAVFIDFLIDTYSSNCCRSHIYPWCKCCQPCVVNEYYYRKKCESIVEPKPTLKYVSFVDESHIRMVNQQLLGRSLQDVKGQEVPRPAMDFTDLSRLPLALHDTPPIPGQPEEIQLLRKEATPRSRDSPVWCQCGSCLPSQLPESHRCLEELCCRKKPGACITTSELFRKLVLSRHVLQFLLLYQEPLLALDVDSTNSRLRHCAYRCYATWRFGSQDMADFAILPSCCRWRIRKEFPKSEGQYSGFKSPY

Caspase-1 [9] = assay: LPS/ATP-induced Caspase-1 activation, mouse bone marrow-derived macrophages, western blot

Cc1cn([C@H]2C=C[C@@H](CO)O2)c(=O)[nH]c1=O [d4T, 2′3′ dideoxythymidine]
solubility (Solubility in water): 106 mg/mL (≈ 473 mM) | Alu RNA-induced Caspase-1 maturation (Caspase-1 [1]; 100 uM, 24 hours after Alu administration): blocked | Alu RNA-induced Caspase-1 activation/cleavage (Caspase-1 [1]; concentration not given): prevents Caspase 1 cleavage | Casp-1 activation induced by LPS/ATP (Caspase-1 [2]): blocks Casp-1 activation | secretion of mature IL-1 beta upon LPS/ATP (IL-1 beta): blocks secretion of mature IL-1 beta | Caspase-1 activation (active p20 band) induced by nigericin (Caspase-1 [3]): inhibits | NLRP3 mRNA levels (priming) induced by Alu RNA (NLRP3 mRNA): reduces NLRP3 priming | IL-1 beta mRNA levels (priming) induced by Alu RNA (IL-1 beta mRNA): reduces IL-1beta priming | ATP release induced by Alu RNA (primary human RPE cells [4]): does not block release of ATP; also recorded: did not affect ATP release | extracellular potassium levels after Alu RNA transfection (primary human RPE cells [5]): reduces extracellular potassium levels | cell death induced by Alu overexpression (viability, MTS) (HeLa cells): prevented cell death | Alu RNA levels, nuclear compartment (Alu RNA; cells treated with antisense oligonucleotides targeting DICER1): does not reduce Alu RNA levels | Alu RNA levels after Alu RNA transfection (Alu RNA; nuclear fraction 1, 4, or 24 hours (FIG. 4), biotin-UTP-labeled Alu RNA (FIG. 45)): does not change Alu RNA levels; also recorded: did not reduce Alu RNA levels | mtDNA levels (mtDNA): reduces mtDNA levels | pAlu-induced RPE degeneration (wild-type mice [6]): blocked RPE degeneration | survival (mice): 30-70% | neutrophil migration to the focus of liver injury [7]: reduced neutrophil migration | Alu RNA-induced RPE cell death (wild-type mice [8]): prevents Alu RNA-induced RPE cell death in a dose-dependent manner | IRAK4 phosphorylation induced by Alu RNA (IRAK4): blocks phosphorylation of IRAK4 | P2X7-mediated YO-PRO-1 dye uptake induced by bzATP (human P2X7 receptor): inhibited | Caspase-1 activation (active p20 band) induced by LPS/ATP (Caspase-1 [9]; 100 uM, cell culture supernatants): inhibit Caspase-1 activation | LPS/ATP-induced Caspase-1 maturation (Caspase-1 [9]; concentration not given): inhibited LPS/ATP-induced Caspase-1 maturation
